Active and inactive are the calls of the source. The rule behind the calls is not given here.
Legend:
[1] = target: Metabotropic glutamate receptor 4 (Rattus norvegicus) (UniProt P31423); experiment: Compound was tested for agonistic or antagonistic activity on rat mGluR4 using the GTP-gamma 35S binding model up to 100 uM; IA means devoid of activity
[2] = target: Glutamate receptor ionotropic, kainate (Rattus norvegicus) (UniProt P22756+Q01812+P42260+P42264+Q63273); experiment: Compound was tested for inhibition of binding of [3H]kainate to Ionotropic glutamate receptor kainate in rat brain membranes up to 100 uM; IA means inactive; format: cell membranes
[3] = target: Glutamate receptor ionotropic, NMDA 2C (Rattus norvegicus) (UniProt Q00961); experiment: Compound was tested for inhibition of binding of [3H]-MK 801 to NMDA receptor in rat brain membranes up to 100 uM; IA means inactive; format: cell membranes
[4] = target: T1, Metabotropic glutamate receptor 2 (Rattus norvegicus, UniProt P31421); experiment: Inhibition of [3H]-DCG IV binding on rat mGluR2 transfected cell membranes from CHO cells
[5] = target: Metabotropic glutamate receptor 5 (Rattus norvegicus) (UniProt P31424); experiment: Compound was tested for agonistic or antagonistic activity on rat mGluR5 using intracellular Ca 2+ measurement up to 100 uM; IA means devoid of activity; format: functional, cell-based
[6] = target: T1, Metabotropic glutamate receptor 2; experiment: Inhibition of 10 uM 1S, 3R-ACPD stimulated GTP gamma 35S binding to rat mGluR2 expressed in CHO cells; format: cell-based
[7] = target: Glutamate receptor ionotropic, AMPA (Rattus norvegicus) (UniProt P19491+P19492+P19493+P19490); experiment: Compound was tested for inhibition of binding of [3H]-Ro- 48-8587 to Ionotropic glutamate receptor AMPA in rat brain membranes up to 100 uM; IA means inactive; format: cell membranes
[8] = target: Metabotropic glutamate receptor 1 (Rattus norvegicus) (UniProt P23385); experiment: Compound was tested for agonistic or antagonistic activity on rat mGluR1 using intracellular Ca 2+ measurement up to 100 uM; IA means devoid of activity; format: functional, cell-based
[9] = target: T1, Metabotropic glutamate receptor 2; experiment: Inhibition of 1S, 3R-ACPD (10 uM)-stimulated GTP gamma 35S binding on rat mGluR2 transfected cell membranes from CHO cells

T1 sequence (P31421 whole entry): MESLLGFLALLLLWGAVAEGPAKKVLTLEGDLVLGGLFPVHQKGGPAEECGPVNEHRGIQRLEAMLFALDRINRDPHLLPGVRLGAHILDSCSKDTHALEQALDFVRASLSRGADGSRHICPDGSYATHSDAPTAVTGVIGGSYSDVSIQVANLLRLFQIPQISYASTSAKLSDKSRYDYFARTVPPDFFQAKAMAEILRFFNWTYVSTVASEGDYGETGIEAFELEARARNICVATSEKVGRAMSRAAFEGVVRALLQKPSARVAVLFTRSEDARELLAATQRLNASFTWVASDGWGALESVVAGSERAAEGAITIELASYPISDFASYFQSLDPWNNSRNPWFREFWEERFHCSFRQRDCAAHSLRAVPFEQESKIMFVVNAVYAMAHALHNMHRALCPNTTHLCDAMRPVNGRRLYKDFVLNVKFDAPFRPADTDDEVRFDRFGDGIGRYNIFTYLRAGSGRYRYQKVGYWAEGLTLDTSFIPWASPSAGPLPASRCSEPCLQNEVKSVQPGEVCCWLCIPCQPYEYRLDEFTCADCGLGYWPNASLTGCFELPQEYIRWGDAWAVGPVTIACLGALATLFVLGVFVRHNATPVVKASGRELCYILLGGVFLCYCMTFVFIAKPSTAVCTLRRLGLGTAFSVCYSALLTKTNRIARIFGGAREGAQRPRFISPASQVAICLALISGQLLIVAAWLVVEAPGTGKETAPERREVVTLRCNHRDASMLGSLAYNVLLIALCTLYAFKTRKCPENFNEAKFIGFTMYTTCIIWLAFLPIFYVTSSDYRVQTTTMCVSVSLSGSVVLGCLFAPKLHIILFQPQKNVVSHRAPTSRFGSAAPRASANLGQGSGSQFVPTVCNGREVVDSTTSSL
Metabotropic glutamate receptor 4 (Rattus norvegicus), sequence (P31423 whole entry): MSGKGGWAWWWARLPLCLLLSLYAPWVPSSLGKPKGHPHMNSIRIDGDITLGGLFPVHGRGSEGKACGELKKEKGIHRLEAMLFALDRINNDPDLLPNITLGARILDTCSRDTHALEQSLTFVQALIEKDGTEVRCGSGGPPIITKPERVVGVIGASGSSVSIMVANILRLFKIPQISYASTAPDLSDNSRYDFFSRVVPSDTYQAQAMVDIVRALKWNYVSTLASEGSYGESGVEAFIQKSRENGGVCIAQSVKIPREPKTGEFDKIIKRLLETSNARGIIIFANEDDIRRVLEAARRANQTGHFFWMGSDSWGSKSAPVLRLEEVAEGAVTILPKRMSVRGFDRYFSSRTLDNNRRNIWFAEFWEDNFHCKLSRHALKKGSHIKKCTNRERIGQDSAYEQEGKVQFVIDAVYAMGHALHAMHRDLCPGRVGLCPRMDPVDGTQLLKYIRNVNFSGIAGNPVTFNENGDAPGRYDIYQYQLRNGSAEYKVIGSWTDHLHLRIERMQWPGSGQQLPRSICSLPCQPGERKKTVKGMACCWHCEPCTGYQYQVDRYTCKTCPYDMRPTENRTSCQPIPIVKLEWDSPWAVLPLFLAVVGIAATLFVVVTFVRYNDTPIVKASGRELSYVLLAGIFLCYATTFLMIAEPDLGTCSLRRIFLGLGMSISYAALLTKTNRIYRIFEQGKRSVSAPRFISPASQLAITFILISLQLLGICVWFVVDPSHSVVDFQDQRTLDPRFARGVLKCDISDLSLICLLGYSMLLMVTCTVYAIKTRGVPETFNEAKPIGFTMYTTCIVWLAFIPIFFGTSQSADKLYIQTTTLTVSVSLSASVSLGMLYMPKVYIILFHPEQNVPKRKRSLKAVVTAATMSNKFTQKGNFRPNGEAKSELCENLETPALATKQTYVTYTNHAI
Metabotropic glutamate receptor 5 (Rattus norvegicus), sequence (P31424 21-1203 limits assumed): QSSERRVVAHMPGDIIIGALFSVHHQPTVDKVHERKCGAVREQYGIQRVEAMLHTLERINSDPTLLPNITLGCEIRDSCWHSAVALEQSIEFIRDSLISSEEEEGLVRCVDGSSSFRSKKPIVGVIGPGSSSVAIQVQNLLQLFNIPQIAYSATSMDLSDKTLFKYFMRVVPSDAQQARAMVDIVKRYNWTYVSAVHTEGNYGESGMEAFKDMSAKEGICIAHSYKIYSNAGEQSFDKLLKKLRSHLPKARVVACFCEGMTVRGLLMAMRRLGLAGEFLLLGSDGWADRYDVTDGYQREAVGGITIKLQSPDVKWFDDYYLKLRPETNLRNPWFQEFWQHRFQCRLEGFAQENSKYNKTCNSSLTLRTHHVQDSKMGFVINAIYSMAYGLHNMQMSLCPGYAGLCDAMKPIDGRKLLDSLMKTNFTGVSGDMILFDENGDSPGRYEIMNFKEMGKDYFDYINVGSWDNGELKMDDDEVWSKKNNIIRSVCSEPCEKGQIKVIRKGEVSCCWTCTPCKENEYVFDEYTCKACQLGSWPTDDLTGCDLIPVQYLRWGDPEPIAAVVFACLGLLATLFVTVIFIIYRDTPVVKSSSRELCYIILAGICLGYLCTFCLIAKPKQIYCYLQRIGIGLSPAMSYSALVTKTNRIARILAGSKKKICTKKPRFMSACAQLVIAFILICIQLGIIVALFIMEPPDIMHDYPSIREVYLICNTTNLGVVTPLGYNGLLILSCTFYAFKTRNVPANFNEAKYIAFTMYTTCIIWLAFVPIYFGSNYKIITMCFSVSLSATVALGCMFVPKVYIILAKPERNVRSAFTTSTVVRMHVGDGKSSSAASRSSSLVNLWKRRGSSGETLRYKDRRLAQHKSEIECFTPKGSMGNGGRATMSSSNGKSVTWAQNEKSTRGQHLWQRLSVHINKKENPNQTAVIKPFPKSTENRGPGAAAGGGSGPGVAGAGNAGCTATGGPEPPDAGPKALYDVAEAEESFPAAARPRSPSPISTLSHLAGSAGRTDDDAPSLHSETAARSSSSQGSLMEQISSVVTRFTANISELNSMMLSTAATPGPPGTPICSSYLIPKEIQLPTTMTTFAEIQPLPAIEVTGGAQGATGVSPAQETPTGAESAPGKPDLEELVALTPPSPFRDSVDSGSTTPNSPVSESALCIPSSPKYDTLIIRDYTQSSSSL
Glutamate receptor ionotropic, NMDA 2C (Rattus norvegicus), sequence (Q00961 20-1237 limits assumed): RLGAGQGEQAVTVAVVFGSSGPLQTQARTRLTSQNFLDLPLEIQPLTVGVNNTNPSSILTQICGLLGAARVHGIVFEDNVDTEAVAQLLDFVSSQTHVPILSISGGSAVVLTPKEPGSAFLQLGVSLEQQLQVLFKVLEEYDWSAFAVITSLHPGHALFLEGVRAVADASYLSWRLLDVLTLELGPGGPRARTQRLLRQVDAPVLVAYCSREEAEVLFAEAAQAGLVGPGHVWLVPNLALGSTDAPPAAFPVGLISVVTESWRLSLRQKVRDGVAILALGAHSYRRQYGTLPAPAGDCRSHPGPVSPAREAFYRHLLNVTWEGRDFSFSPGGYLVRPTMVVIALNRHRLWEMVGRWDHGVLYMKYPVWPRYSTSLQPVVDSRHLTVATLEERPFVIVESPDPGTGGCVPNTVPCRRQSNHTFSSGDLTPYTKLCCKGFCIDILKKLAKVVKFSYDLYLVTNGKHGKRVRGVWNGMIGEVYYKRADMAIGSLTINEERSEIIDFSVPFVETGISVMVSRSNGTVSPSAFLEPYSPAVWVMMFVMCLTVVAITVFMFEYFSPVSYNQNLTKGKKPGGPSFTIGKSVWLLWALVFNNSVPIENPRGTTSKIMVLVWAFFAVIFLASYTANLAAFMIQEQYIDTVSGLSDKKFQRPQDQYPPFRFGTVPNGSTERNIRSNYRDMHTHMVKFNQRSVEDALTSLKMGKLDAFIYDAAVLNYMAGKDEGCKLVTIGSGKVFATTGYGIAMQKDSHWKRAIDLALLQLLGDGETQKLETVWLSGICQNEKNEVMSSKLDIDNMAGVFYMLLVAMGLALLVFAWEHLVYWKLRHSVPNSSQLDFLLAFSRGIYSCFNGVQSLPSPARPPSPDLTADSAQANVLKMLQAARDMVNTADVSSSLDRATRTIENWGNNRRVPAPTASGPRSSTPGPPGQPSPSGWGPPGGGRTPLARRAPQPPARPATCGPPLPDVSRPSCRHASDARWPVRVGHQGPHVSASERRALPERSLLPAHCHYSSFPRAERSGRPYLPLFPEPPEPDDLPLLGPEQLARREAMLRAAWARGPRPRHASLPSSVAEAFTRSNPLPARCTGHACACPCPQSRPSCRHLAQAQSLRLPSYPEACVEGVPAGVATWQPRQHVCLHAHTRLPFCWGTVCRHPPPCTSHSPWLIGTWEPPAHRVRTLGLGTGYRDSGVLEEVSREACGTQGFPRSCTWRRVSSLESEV

SMILES | Activity [1] | Activity [2] | Activity [3] | IC50 [4] | Activity [5] | IC50 [6] | Activity [7] | Activity [8] | IC50 [9]
Clc1cccc(Cl)c1/C(=C/n1cncn1)OC1CCCCCC1 | inactive | inactive | inactive | 0.5 µM | inactive | 0.11 µM | inactive | inactive | –
COc1ccc(/C(=C/n2cncn2)OC(C)C)c(OC)c1 | – | – | – | – | – | – | – | – | > 100 µM

Reference: ChEMBL document CHEMBL1132130, “Synthesis of heterocyclic enol ethers and their use as group 2 metabotropic glutamate receptor antagonists” (Bioorg Med Chem Lett, 1999)
